This is an account of results in patent publication US20230278995A1, “1,3,4-OXADIAZOLE DERIVATIVE COMPOUNDS AS HISTONE DEACETYLASE 6 INHIBITOR, AND THE PHARMACEUTICAL COMPOSITION COMPRISING THE SAME” (CHONG KUN DANG PHARMACEUTICAL CORP., priority 2020, published 2023).

A word on the IC50: it is the midpoint of a concentration-inhibition curve.

One experiment deals with T1, human recombinant HDAC1 (Homo sapiens, UniProt Q13547).
T1 construct: purchased Enzo Life Sciences, Inc. BML-SE456
As to the kind of experiment: HDAC enzyme activity inhibition assay (HDAC Fluorimetric Drug Discovery Kit), HDAC1. The class given is biochemical. Conditions: human recombinant HDAC1, Fluor de Lys-SIRT1 substrate, 30° C. 60 minutes. The essentials:
(§1)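 Recombinant human HDAC1 or HDAC6 (0.3 μg) reacted with 10 μM Fluor de Lys-SIRT1 substrate at 30 °C for 60 min. Developer added for 30 min, then fluorescence read at Ex 360/Em 460.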

The next experiment has as its target T2, human recombinant HDAC6 (Homo sapiens, UniProt Q9UBN7).
T2 construct: purchased Calbiochem Inc. 382180
T2 sequence (Q9UBN7 1-1215): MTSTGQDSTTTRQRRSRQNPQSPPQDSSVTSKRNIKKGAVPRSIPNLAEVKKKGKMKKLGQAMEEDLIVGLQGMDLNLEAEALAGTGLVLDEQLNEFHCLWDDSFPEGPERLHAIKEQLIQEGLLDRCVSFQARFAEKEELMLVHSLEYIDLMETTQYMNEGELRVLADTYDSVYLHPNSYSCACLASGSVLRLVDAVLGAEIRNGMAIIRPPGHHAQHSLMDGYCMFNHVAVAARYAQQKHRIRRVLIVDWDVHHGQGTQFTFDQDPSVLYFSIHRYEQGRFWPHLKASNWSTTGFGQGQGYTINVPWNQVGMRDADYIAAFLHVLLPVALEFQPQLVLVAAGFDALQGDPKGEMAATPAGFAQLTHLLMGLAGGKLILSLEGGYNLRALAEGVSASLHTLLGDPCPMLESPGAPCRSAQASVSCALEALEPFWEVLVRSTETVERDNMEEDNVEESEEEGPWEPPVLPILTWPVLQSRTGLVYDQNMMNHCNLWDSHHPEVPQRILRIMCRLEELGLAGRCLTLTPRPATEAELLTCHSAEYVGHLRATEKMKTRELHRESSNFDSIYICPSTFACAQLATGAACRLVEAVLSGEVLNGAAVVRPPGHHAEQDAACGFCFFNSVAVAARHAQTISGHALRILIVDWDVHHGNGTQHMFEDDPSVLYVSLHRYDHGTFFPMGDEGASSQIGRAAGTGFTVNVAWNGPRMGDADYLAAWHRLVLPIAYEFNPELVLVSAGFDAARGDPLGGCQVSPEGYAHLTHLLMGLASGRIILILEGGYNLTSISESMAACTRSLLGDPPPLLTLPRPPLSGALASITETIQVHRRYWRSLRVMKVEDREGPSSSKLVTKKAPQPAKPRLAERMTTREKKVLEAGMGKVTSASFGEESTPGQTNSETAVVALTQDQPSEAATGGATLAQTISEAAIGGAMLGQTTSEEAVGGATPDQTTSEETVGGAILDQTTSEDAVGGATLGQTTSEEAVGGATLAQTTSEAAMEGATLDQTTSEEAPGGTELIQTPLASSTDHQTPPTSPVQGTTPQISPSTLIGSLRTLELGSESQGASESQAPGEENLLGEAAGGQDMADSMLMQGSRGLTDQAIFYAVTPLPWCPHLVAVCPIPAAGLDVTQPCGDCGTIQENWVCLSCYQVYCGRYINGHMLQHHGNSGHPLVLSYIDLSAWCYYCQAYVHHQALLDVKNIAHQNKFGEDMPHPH
As to the kind of experiment: HDAC enzyme activity inhibition assay (HDAC Fluorimetric Drug Discovery Kit), HDAC6. Type of experiment: biochemical. Conditions: for HDAC6 selectivity (fold): HDAC1 vs HDAC6; for IC50: human recombinant HDAC6, same protocol as HDAC1. The gist of the method: as §1

T1 sequence (Q13547 whole entry): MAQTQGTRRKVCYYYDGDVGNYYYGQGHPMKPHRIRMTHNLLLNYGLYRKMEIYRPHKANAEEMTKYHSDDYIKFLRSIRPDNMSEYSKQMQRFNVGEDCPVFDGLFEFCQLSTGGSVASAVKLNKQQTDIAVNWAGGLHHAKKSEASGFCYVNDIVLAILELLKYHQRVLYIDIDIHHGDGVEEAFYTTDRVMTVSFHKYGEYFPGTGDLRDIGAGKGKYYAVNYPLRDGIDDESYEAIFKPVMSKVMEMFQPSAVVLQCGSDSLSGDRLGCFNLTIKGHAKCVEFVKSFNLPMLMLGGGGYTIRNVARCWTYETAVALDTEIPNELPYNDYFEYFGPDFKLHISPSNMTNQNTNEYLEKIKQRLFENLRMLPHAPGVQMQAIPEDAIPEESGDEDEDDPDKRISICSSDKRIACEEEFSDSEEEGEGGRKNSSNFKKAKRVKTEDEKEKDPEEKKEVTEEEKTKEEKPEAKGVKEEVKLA

Consider `CN1CC(N2CCC(F)(C(=O)N(Cc3ccc(-c4nnc(C(F)F)o4)cn3)c3cccc(F)c3)CC2)C1` [Compound 3389, N-((5-(5-(difluoromethyl)-1,3,4-oxadiazol-2-yl)pyridin-2-yl)methyl)-4-fluoro-N-(3-fluorophenyl)-1-(1-methylazetidine-3-yl)piperidine-4-carboxamide], for which, on human recombinant HDAC1, the IC50 stood at 28500 nM. Also, on human recombinant HDAC6, the “HDAC6 selectivity (fold)” value was 885 fold and the IC50 was 32.2 nM.

Take `CCCN1CC(N2CCC(F)(C(=O)N(Cc3ccc(-c4nnc(C(F)F)o4)cn3)c3cccc(F)c3)CC2)C1` [Compound 3390, N-((5-(5-(difluoromethyl)-1,3,4-oxadiazol-2-yl)pyridin-2-yl)methyl)-4-fluoro-N-(3-fluorophenyl)-1-(1-propylazetidine-3-yl)piperidin-4-carboxamide]: the half-maximal inhibitory concentration (IC50) on human recombinant HDAC1 was 24200 nM. Also, at human recombinant HDAC6, the “HDAC6 selectivity (fold)” value is listed as 1,015 fold and the half-maximal inhibitory concentration (IC50) was 23.8 nM.

`CCCCN1CC(N2CCC(F)(C(=O)N(Cc3ccc(-c4nnc(C(F)F)o4)cn3)c3cccc(F)c3)CC2)C1` [Compound 3391, 1-(1-butylazetidine-3-yl)-N-((5-(5-(difluoromethyl)-1,3,4-oxadiazol-2-yl)pyridin-2-yl)methyl)-4-fluoro-N-(3-fluorophenyl)piperidine-4-carboxamide]: the IC50 at human recombinant HDAC1 was 28500 nM. Also, on human recombinant HDAC6, the “HDAC6 selectivity (fold)” value is listed as 1,361 fold and the half-inhibitory concentration (IC50) stood at 20.9 nM.

For the compound `CC(C)CN1CC(N2CCC(F)(C(=O)N(Cc3ccc(-c4nnc(C(F)F)o4)cn3)c3cccc(F)c3)CC2)C1` [Compound 3392, N-((5-(5-(difluoromethyl)-1,3,4-oxadiazol-2-yl)pyridin-2-yl)methyl)-4-fluoro-N-(3-fluorophenyl)-1-(1-isobutylazetidine-3-yl)piperidine-4-carboxamide], the IC50 stood at 44600 nM at human recombinant HDAC1 and 19 nM at human recombinant HDAC6. The “HDAC6 selectivity (fold)” value at human recombinant HDAC6 is 2,348 fold.

With `CC(C)N1CC(N2CCC(F)(C(=O)N(Cc3ccc(-c4nnc(C(F)F)o4)cn3)c3cccc(F)c3)CC2)C1` [Compound 3393, N-((5-(5-(difluoromethyl)-1,3,4-oxadiazol-2-yl)pyridin-2-yl)methyl)-4-fluoro-N-(3-fluorophenyl)-1-(1-isopropylazetidine-3-yl)piperidin-4-carboxamide], the concentration for half-maximal inhibition (IC50) on human recombinant HDAC1 was above 50000 nM; on human recombinant HDAC6 it was 18.4 nM. In addition, the “HDAC6 selectivity (fold)” value at human recombinant HDAC6 is recorded as 2,717 fold.

For `O=C(N(Cc1ccc(-c2nnc(C(F)F)o2)cn1)c1cccc(F)c1)C1(F)CN(C2CN(C3CCC3)C2)C1` [Compound 3394, 1′-cyclobutyl-N-((5-(5-(difluoromethyl)-1,3,4-oxadiazol-2-yl)pyridin-2-yl)methyl)-3-fluoro-N-(3-fluorophenyl)-[1,3′-biazetidine]-3-carboxamide], the IC50 at human recombinant HDAC1 is above 50000 nM. At human recombinant HDAC6, the “HDAC6 selectivity (fold)” value is on record as 1,886 fold and the IC50 was 26.5 nM.

Take `O=C(N(Cc1ccc(-c2nnc(C(F)F)o2)cn1)c1cccc(F)c1)C1(F)CN(C2CN(C3COC3)C2)C1` [Compound 3395, N-((5-(5-(difluoromethyl)-1,3,4-oxadiazol-2-yl)pyridin-2-yl)methyl)-3-fluoro-N-(3-fluorophenyl)-1′-(oxetan-3-yl)-[1,3′-biazetidine]-3-carboxamide]: on human recombinant HDAC1, the IC50 is above 50000 nM. Besides, at human recombinant HDAC6, the “HDAC6 selectivity (fold)” value is 1,388 fold and the half-inhibitory concentration (IC50) came out at 36 nM.

Regarding `O=C(N(Cc1ccc(-c2nnc(C(F)F)o2)cn1)c1cccc(F)c1)C1(F)CN(C2CN(C3CCCC3)C2)C1` [Compound 3396, 1′-cyclopentyl-N-((5-(5-(difluoromethyl)-1,3,4-oxadiazol-2-yl)pyridin-2-yl)methyl)-3-fluoro-N-(3-fluorophenyl)-[1,3′-biazetidine]-3-carboxamide], the IC50 on human recombinant HDAC1 was found to be 31600 nM. Further, on human recombinant HDAC6, the “HDAC6 selectivity (fold)” value was 1,618 fold and the 50% inhibitory concentration (IC50) is 19.5 nM.
